From patent EP0644191A1, “PYRIDINE COMPOUND AND MEDICINAL USE THEREOF” (YOSHITOMI PHARMACEUTICAL INDUSTRIES, LTD., priority 1992, dated 1993)
Values after ≈ are worked out from the molar mass of the structure shown.

Legend:
Helicobacter pylori = assay: Antibacterial activity (in vitro), agar plate dilution method, clinical isolates (18 strains); format: cell-based; conditions: 18 clinical isolates, 37°C, 8% CO₂, 3-4 days
Procedure: Antibacterial activity (in vitro) of the compound of the present invention against Helicobacter pylori was determined by the following agar plate dilution method. […] The cultures were diluted with Brucella broth to give a concentration of approximately 10⁶ cell/ml. The diluted bacterial solution was spot inoculated with a microplanter on an agar plate containing 2-fold dilution concentration series of the test compound. The cells were incubated at 37°C under 8% CO₂ for 3-4 days. The minimum inhibitory concentration (MIC) in respective strains was determined, based on which MIC₅₀ and MIC₉₀ were calculated.

[1] = system: Escherichia coli NIHJ JC-2; assay: Antibacterial spectrum, agar plate dilution MIC; format: cell-based; conditions: NIHJJC2, 37°C, 8% CO₂, 3-4 days
Procedure: (§1) The test bacterium precultured in Muller-Hinton liquid medium was diluted with the same medium to give a bacterial solution of about 10⁶ cell/ml for inoculation. The dilute bacterial solution was spot inoculated with a microplanter on an agar plate containing 2-fold dilution concentration series of the test compound and the cells were incubated at 37°C under 8% CO₂ for 3-4 days. The minimum inhibitory concentration (MIC) in respective strains was determined, based on which MIC was calculated.

[2] = system: Pseudomonas aeruginosa IFO 12582; assay: Antibacterial spectrum, agar plate dilution MIC; format: cell-based; conditions: IFO12582, 37°C, 8% CO₂, 3-4 days, read-out: MIC P. aeruginosa
Procedure: as §1

[3] = system: Staphylococcus aureus FDA 209P; assay: Antibacterial spectrum, agar plate dilution MIC; format: cell-based; conditions: FDA209P, 37°C, 8% CO₂, 3-4 days, read-out: MIC S. aureus
Procedure: as §1

[4] = system: Candida albicans IFO 1060; assay: Antifungal spectrum, agar plate dilution MIC; format: cell-based; conditions: IFO1060, 37°C, 8% CO₂, 3-4 days
[5] = Aspirin/hydrochloric acid-induced gastric ulcer in rats; format: in vivo; conditions: for Ulcer index (mean±standard deviation): 30 min before aspirin 100 mg/kg, stomach removed 4 hours later, control 5.0±0.51; for Change (%): change of ulcer index versus control
Procedure: Male rats weighing about 200 g (16 rats per group) were fasted for 20 hours and the test solution was orally administered to the rats. Thirty minutes later, aspirin (100 mg/kg) containing 0.3N hydrochloric acid was orally administered.
Four hours later, the stomach was removed and the area which developed ulcer was examined. A square root of the total ulcer area was taken as an ulcer index.

[6] = Acute toxicity in mice, observed for 5 days; format: in vivo
From the text: As a result, no death case was found.

Work on `Cc1c(SCC[N+]2([O-])CCOCC2)ccnc1CSc1nc2ccccc2[nH]1` [Example 28, 4-(2-((2-(1H-benzimidazol-2-yl)thiomethyl-3-methyl-4-pyridyl)thio)ethyl)morpholine N-oxide] yielded an MIC50 (Helicobacter pylori) of 0.025 µg/mL (≈ 0.06 µM), an MIC90 (Helicobacter pylori) of 0.025 µg/mL (≈ 0.06 µM) and an MIC [1] of over 100 µg/mL. For the same compound, the MIC [2] was over 100 µg/mL, the MIC [3] was over 100 µg/mL and the MIC [4] was over 100 µg/mL.
Compound `Cc1c(SCCN2CCc3ccccc3C2)ccnc1CSc1nc2ncccc2[nH]1` [Example 12, 2-((3-methyl-4-(2-(1,2,3,4-tetrahydroisoquinolin-2-yl)ethylthio)-2-pyridyl)methylthio)imidazo[5,4-b]pyridine] has an MIC50 (Helicobacter pylori) of 0.012 µg/mL (≈ 0.0268 µM) and an MIC90 (Helicobacter pylori) of 0.025 µg/mL (≈ 0.0558 µM).
Compound `Cc1c(SCCN2CCOCC2)ccnc1CSc1nc2ccccc2[nH]1` [Example 1, 2-(3-methyl-4-(2-morpholinoethylthio)-2-pyridyl)methylthio-1H-benzimidazole] has an MIC50 (Helicobacter pylori) of at most 0.006 µg/mL, an MIC90 (Helicobacter pylori) of 0.012 µg/mL (≈ 0.03 µM) and an MIC [1] of over 100 µg/mL. It also gave an MIC [2] of over 100 µg/mL, an MIC [3] of over 100 µg/mL and an MIC [4] of over 100 µg/mL. The “Ulcer index (mean±standard deviation)” value ([5]; 10 mg/kg p.o.) was 3.1±0.33, the “Change (%)” value ([5]; 10 mg/kg p.o.) was -37% and the “Ulcer index (mean±standard deviation)” value ([5]; 30 mg/kg p.o.) was 2.3±0.49. For the same compound, the “Change (%)” value ([5]; 30 mg/kg p.o.) was -55%.
`Cc1c(SCCN(C)Cc2ccccc2)ccnc1CSc1nc2ccccc2[nH]1` [Example 3] showed an MIC50 (Helicobacter pylori) of 0.025 µg/mL (≈ 0.0575 µM), an MIC90 (Helicobacter pylori) of 0.05 µg/mL (≈ 0.115 µM) and an MIC [1] of over 100 µg/mL. The MIC [2] was over 100 µg/mL, the MIC [3] was over 100 µg/mL and the MIC [4] was over 100 µg/mL.
Compound `Cc1c(OCCN2CCc3ccccc3C2)ccnc1CSc1nc2ccccc2[nH]1` [Ref. Compound 1, 2-(3-methyl-4-(2-(1,2,3,4-tetrahydroisoquinolin-2-yl)ethoxy)-2-pyridyl)methylthio-1H-benzimidazole, reference compound] has an MIC50 (Helicobacter pylori) of 0.05 µg/mL (≈ 0.116 µM) and an MIC90 (Helicobacter pylori) of 0.1 µg/mL (≈ 0.232 µM).
In the case of `Cc1c(OCCN(C)Cc2ccccc2)ccnc1C[S+]([O-])c1nc2ccccc2[nH]1` (centres unmarked) [Ref. Compound 2, 2-(3-methyl-4-(2-(N-benzyl-N-methylamino)ethoxy)-2-pyridyl)methylsulfinyl-1H-benzimidazole, reference compound], the MIC50 (Helicobacter pylori) is reported as 0.1 µg/mL (≈ 0.23 µM) and the MIC90 (Helicobacter pylori) is reported as 0.2 µg/mL (≈ 0.46 µM).
With `Cc1c(OCCN2CCc3ccccc3C2)ccnc1C[S+]([O-])c1nc2ccccc2[nH]1` (centres unmarked) [Ref. Compound 3, 2-(3-methyl-4-(2-(1,2,3,4-tetrahydroisoquinolin-2-yl)ethoxy)-2-pyridyl)methylsulfinyl-1H-benzimidazole, reference compound] the MIC50 (Helicobacter pylori) was 0.05 µg/mL (≈ 0.112 µM) and the MIC90 (Helicobacter pylori) was 0.1 µg/mL (≈ 0.224 µM).
Work on `Cc1c(SC2CCN(Cc3ccccc3)CC2)ccnc1CSc1nc2ccccc2[nH]1` [Example 7, 2-(4-(1-benzyl-4-piperidyl)thio-3-methyl-2-pyridyl)methylthio-1H-benzimidazole] yielded an MIC50 (Helicobacter pylori) of 0.012 µg/mL (≈ 0.026 µM), an MIC90 (Helicobacter pylori) of 0.025 µg/mL (≈ 0.0543 µM) and an MIC [1] of over 100 µg/mL. The MIC [2] was over 100 µg/mL, the MIC [3] was over 100 µg/mL and the MIC [4] was over 100 µg/mL.
`Cc1c(SCCN2CCc3ccccc3C2)ccnc1CSc1nc2ccccc2[nH]1` [Example 2, 2-(3-methyl-4-(2-(1,2,3,4-tetrahydroisoquinolin-2-yl)ethylthio)-2-pyridyl)methylthio-1H-benzimidazole] gave an MIC50 (Helicobacter pylori) of at most 0.006 µg/mL, an MIC90 (Helicobacter pylori) of at most 0.006 µg/mL and an MIC [1] of over 100 µg/mL. For the same compound, the MIC [2] was over 100 µg/mL, the MIC [3] was over 100 µg/mL and the MIC [4] was over 100 µg/mL. The death ([6]; intraperitoneally 300 mg/kg) was “no death case” and the death ([6]; orally 1000 mg/kg) was “no death case”.
